Experimental data as given in BindingDB's records for doi:10.1021/jm801507v (AstraZeneca, 2009).

Key:
[1] = molecular target: T1, Sterol O-acyltransferase 1 (Homo sapiens, UniProt P35610); test: ACAT-1 Enzyme Inhibition Assay; settings: pH 7.4; 37 °C
T1 sequence (P35610 whole entry): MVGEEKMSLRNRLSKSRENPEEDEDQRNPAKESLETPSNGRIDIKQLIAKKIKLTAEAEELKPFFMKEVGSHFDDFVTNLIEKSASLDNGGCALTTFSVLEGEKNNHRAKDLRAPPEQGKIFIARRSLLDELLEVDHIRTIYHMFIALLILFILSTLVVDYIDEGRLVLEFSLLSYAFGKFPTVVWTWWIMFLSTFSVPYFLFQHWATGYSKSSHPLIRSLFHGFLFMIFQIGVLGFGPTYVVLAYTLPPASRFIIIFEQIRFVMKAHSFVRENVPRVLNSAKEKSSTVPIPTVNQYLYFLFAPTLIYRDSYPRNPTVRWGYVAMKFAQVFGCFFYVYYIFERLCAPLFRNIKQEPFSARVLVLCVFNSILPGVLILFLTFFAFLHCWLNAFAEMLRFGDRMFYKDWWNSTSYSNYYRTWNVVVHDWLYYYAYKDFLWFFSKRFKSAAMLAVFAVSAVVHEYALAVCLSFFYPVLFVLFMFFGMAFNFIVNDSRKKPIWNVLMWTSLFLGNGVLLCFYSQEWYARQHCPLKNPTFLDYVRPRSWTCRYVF
Procedure: (§1) The reaction was started by adding substrate [14C]oleoyl coenzyme A and incubated. After the reaction was stopped, radioactive cholesteryl oleate product was separated into the organic heptane phase. ACAT-1 activity was quantified by counting aliquots of the upper heptane layer by liquid scintillography.

[2] = molecular target: T2, Diacylglycerol O-acyltransferase 1 (Homo sapiens, UniProt O75907); test: DGAT Enzyme Inhibition Assay; settings: pH 7.4; 22 °C
T2 sequence (O75907 whole entry): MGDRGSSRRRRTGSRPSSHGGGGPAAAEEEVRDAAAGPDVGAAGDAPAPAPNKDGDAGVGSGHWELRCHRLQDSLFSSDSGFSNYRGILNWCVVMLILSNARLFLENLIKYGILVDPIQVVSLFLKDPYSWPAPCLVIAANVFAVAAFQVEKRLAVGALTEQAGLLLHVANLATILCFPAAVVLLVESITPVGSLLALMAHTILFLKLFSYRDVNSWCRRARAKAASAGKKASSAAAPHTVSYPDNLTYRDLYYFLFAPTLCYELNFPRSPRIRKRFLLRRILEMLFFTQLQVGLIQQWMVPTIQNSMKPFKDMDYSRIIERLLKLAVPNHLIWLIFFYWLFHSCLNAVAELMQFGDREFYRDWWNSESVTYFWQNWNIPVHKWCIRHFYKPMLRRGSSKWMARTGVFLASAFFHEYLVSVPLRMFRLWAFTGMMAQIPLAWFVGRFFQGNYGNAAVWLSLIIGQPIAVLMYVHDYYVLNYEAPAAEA
Procedure: as §1, with “The assay mixture contains test compound, membrane protein, and 1,2 dioleoyl-sn-glycerol in a 96-deep well plate. The” for “The”, “triolein” for “cholesteryl oleate”, “DGAT” for “ACAT-1”

- IC50 [1]: 28 µM
- IC50 [2]: 0.069 µM
Structure (SMILES): CC1(C)Oc2ncnc(N)c2N=C1c1ccc(C23CCCC(CC(=O)O)(CC2)CC3)cc1 [2-[5-(4-{4-amino-7,7-dimethyl-7H-pyrimido[4,5-b][1,4]oxazin-6-yl}phenyl)bicyclo[3.2.2]nonan-1-yl]acetic acid]
